Where “and” joins values, the source holds several entries; their conditions need not be identical. Identical values can stand only once.
Assays:
[1] = system: human lung fibroblast WI-38 cell line; experiment: MTT cytotoxicity assay against WI-38 cells; type: cell-based; conditions: MTT, 48 h
Description: Based on the promising dual inhibitory activity of this class of compounds, we next evaluated the cytotoxicity of compounds 5a and 7a against human lung fibroblast cell line WI-38 in order to gain insights into the toxicity of this class of compounds utilizing the MTT assay. In this regard, lung fibroblast cells were cultured and treated with compounds 5a and 7a for 48 h at different concentrations (1000, 250, 63, 16, and 4 µg/mL). After the cells were washed, they were treated with MTT solution and the absorption was assessed using an ELISA reader at 570 nm. As a pharmacological reference drug, Celecoxib, a well-known anti-inflammatory agent, was utilized.
The cytotoxicity of compounds 5a and 7a was assessed toward the human lung fibroblast WI-38 cell line (Sigma-Aldrich, St. Louis, MO, USA, product number 90020107) using MTT assay. The MTT test assay was performed in accordance with the previously stated procedure. MTT (3-(4,5-dimethylthiazol-2-yl)-2,5-diphenyl tetrazolium bromide; Sigma catalog no. M2128) was dissolved in PBS at 5 mg/mL and processed to eliminate the insoluble residues. Briefly, cells (10^5 cells/well) were treated for 48 h at 37 °C with compounds 5a and 7a at varied doses (1000, 250, 63, 16, and 4 µg/mL, DMSO stock solutions) in a 5% CO2 atmosphere. In our assessment, celecoxib, an inhibitor of cyclooxygenase 2, was employed as a standard reference drug. Following cell washing, MTT solution (180 µL/well) was applied to the cells and incubated at 37 °C for 4 h with shaking, and the absorbance was measured using an ELISA reader at 570 nm.

[2] = ROS-generation assay (H2O2 generated with DTT, HRP-phenol red, 610 nm); conditions: 50 µM compound, incubated with DTT; control 90.74±5.54
Excerpt: The […] metabolites and enzymes (such as NADPH oxidase, lipoxygenase, and cytochrome P450) act together to mediate the production of ROS and diminish the counteractive oxidative damage. ROS can cause damage to DNA, lipid, proteins, and nucleic acids and the destruction of cell components leading to cell death. Toward this end, we aimed to investigate whether the mode of action of this class of compounds involved the generation of ROS. ROS-producing compounds upon reaction with a reducing agent in the presence of oxygen afford superoxide O^•−2 radical and hydrogen peroxide (H2O2) which could be quantitively estimated. Thus, compounds 5a and 7a (at 50 µM concentration) were incubated with the reducing agent dithiothreitol (DTT) and the generated H2O2 was subsequently assessed by monitoring the oxidation of phenol red in the presence of horseradish peroxidase (HRP) at the absorbance of 610 nm. We first examined the validity of the assay by examining the activity of a known ROS-producing standard drug. In our study, Celecoxib was utilized as a reference pharmacological ROS-generating drug. […] Next, we evaluated the potency of compounds 5a and 7a to produce ROS at a 50 µM concentration.
According to Nasiri et al., the antioxidant activity of compounds (5a, 7a) and Celecoxib was measured by an evaluation of ROS-generation using ELISA analysis. Three different solutions were prepared for the in vitro assessment of ROS-generation: phenol red, sodium hydroxide solution, and DTT. All reagents were provided by Sigma-Aldrich. A stock solution of DTT (20 mM) was prepared by dissolving […] of DTT in 500 µL of Hank’s Balanced Salt Solution (HBSS), and the obtained solution was preserved at −20 °C. The stock solution was further diluted with HBSS to 0.8 mM for each measurement. The HRP-PR solution was prepared by dissolving 1.8 mg of horseradish peroxidase (HRP) and 3 mg of phenol red (PR) in 10 mL of HBSS. […] After incubation, 1N NaOH was applied, and the absorbance at 610 nm was measured using a plate reader spectrometer. […]

| SMILES | WI-38 cytotoxicity IC50 [1] [µg/mL] | ROS produced (generated H2O2) [2] |
| --- | --- | --- |
| COC(=O)CCN1C(=S)N(N=C(C)c2ccccc2O)C(=O)C1=Cc1ccccc1O [Compound 5a, Methyl [5-(2-hydroxybenzylidene)-4-oxo-3-(2-hydroxyphenylethylidene)amino-2-thioxoimidazolidin-1-yl] propionate] | 88.538 | 132.4 pg/mL and 132.4 ± 2.16 pg/mL |
| COC(=O)CCN1C(=S)N(N=C(C)c2ccccc2O)C(=O)C1=Cc1ccccc1OC(C)=O [Compound 7a, Methyl [5-(2-acetoxybenzylidene)-4-oxo-3-(2-hydroxyphenylethylidene)amino-2-thioxoimidazolidin-1-yl] propionate] |  | 191.5 pg/mL and 191.5 ± 3.62 pg/mL |

From publication PMC9785777, “Antidiabetic Potential of Novel 1,3,5-Trisubstituted-2-Thioxoimidazloidin-4-One Analogues: Insights into α-Glucosidase, α-Amylase, and Antioxidant Activities” (Pharmaceuticals, 2022)
